Measurements as given in patent US20140296137A1, “METHODS AND COMPOSITIONS FOR CONTROLLING ROTIFERS” (Los Alamos National Security, LLC, priority 2013, published 2014).
Read-outs that look alike come from different tables or passages of the source. Ends that are not written are not given here.

Key:
[1] = test system: Chlamydomonas reinhardtii; details: 5-6 days, room temperature, 96-well, algae colour under 20× microscope; ND = AMP killed all the algae
Procedure: (§1) This example provides the minimal inhibitory concentration (MIC) of antimicrobial peptides (AMPs) for algae. […] Therefore, the tolerance of algae to the AMPs listed in Table 2 of Example 1 was measured.
(§2) Briefly, the algae viability assay used herein measured the “health” of the algae cultures by looking at the color of the algae. […] A visual assay was used to determine the MIC for the individual AMPs on the algae. In each case, a light microscope with 20× magnification was used to observe algae color.
(§3) The effect of insecticidal and non-insecticidal AMPs on three different algae species was measured. The three algae species were Auxenochlorella protothecoides, Chlorella sorokiniana and Chlamydomonas reinhardtii.
(§4) Algae cultures were initiated in 96-well plates at an OD 750 of approximately 0.1. […] The antibiotics hygromycin and paromycin served as positive controls for inhibiting and/or reducing the growth rate of algae. […] The algae cultures were monitored by preparing microscopy slides with a small sample taken from the individual wells. The algae slides were then visualized under a 20× magnification microscope for algae viability as measured by algae color.

Chlorella protothecoides = details: 5-6 days, room temperature, 96-well, algae colour under 20× microscope; ND = AMP killed all the algae
Procedure: as §1, §2, §3, §4

Chlorella sorokiniana = test system: Chlorella sorokiniana
Procedure: as §1, §2, §3, §4

Adineta vaga = type: in vivo; design: key to the marks not given beside the values; details: AMP 0.5 mg/mL, 24 hr time point, room temperature, visual motility score
From the text: (§5) Briefly, the rotifer motility assay used herein in the presence of a biocontrol agent (e.g., AMP) may be used as a measure of relative rotifer viability and competency. Rotifer diet, of which algae is considered to be an important food source, is one of the key environmental factors that impact the growth and multiplication of rotifers. In effect, the inability of a rotifer to be mobile (i.e., inability to swim toward a food source and/or to have mobile cilia that help trap food) prevents the rotifer from ingesting sufficient nutrients to further grow and reproduce. Thus, any approach that reduces and/or inhibits rotifer motility has a significant impact on an individual rotifer and therefore rotifer populations. With respect to algae cultures, reducing and/or inhibiting rotifer motility prevents and/or reduces any negative impact rotifers have on algae cultures (e.g., open pond systems for algae biomass and biofuel production). In other words, reducing and/or inhibiting rotifer motility reduces and/or prevents rotifers (e.g., infestations) from ingesting and consequently damaging algae cultures use in biofuel production.
(§6) The effect of the insecticidal and non-insecticidal AMPs of Table 2 (Example 1) on three different rotifer species was measured. The three rotifer species were Adineta vaga and Philodina acuticornis (class Bdelloid rotifers), and Brachionus (Monogononta class). A visual motility assay was used to determine the impact of the individual AMPs on rotifer viability. In each case, a light microscope with 20× magnification was used to observe rotifer motility (activity). […] FIGS. 1A, 1C and 1E show a 20× magnification of Adineta vaga, Philodina acuticornis and Brachionus (untreated), respectively. FIGS. 1B, 1D and 1F show a 20× magnification of Adineta vaga, Philodina acuticornis and Brachionus (AMP treated), respectively.
(§7) Rotifer cultures were initiated in 12-well or 24-well plates at a density of approximately 100-200 rotifers/mL. The 12-well plates contained a volume of 1 mL per well, and the 24-well plates contained a volume of about 0.25 mL to about 0.35 mL per well. Individual rotifer cultures (individual wells) were incubated with a select AMP at a concentration of 0.5 mg/mL (or a range of about 78 μM to about 365 μM) for 18, 21 and 24 hours at room temperature. The rotifer cultures were monitored by preparing microscopy slides with a small sample taken from the individual wells. The slides were then visualized under a 20× magnification microscope for rotifer motility. […] The scoring system was based on observing a subset of the rotifer population from each well. The impact on the subset of rotifers observed served as a representative of the impact on the entire rotifer population for that particular AMP treatment.
(§8) A summary of the motility assay (or “Kill Assay”) for each insecticidal and non-insecticidal AMP incubated with the three different rotifer species for the 24 hour time point is provided below in Table 5 (insecticidal AMPs) and Table 6 (non-insecticidal AMPs). The 18 and 21 hour time points gave similar results to the 24 hour time point.

Philodina acuticornis = type: in vivo; design: key to the marks not given beside the values; details: AMP 0.5 mg/mL, 24 hr time point, room temperature, visual motility score
From the text: as §5, §6, §7, §8

Brachionus = type: in vivo; details: AMP 0.5 mg/mL, 24 hr time point, room temperature, visual motility score
From the text: as §5, §6, §7, §8

[2] = 5-6 days, room temperature, 96-well, algae colour under 20× microscope, ND = AMP killed all the algae

Molecule	Minimal Inhibitory Concentration (MIC) Chlamydomonas reinhardtii [1]	Minimal Inhibitory Concentration (MIC) Chlorella protothecoides (Chlorella protothecoides) [µM]	Minimal Inhibitory Concentration (MIC) Chlorella sorokiana (Chlorella sorokiniana; [2]) [µM]	Minimal Inhibitory Concentration (MIC) Chlorella sorokiana (Chlorella sorokiniana) [µM]	“Kill” Efficiency Adineta vaga (Adineta vaga)	“Kill” Efficiency Philodina (Philodina acuticornis)	“Kill” Efficiency Brachionus (Brachionus)
DFKDWMKTAGEWLKKKGPGILKAAMAAAT [Ponericin G4]	19.8 µM	158	79				
GIGKFLHSAKKFGKAFVGEIMNS [Magainin 2]				50.7	+++	+++	+
CC[C@H](C)[C@H](NC(=O)CN)C(=O)NCC(=O)N[C@@H](C)C(=O)N[C@H](C(=O)N[C@@H](CC(C)C)C(=O)N[C@@H](CCCCN)C(=O)N[C@H](C(=O)N[C@@H](CC(C)C)C(=O)N[C@H](C(=O)N[C@H](C(=O)NCC(=O)N[C@@H](CC(C)C)C(=O)N1CCC[C@H]1C(=O)N[C@@H](C)C(=O)N[C@@H](CC(C)C)C(=O)N[C@H](C(=O)N[C@@H](CO)C(=O)N[C@@H](Cc1c[nH]c2ccccc12)C(=O)N[C@H](C(=O)N[C@@H](CCCCN)C(=O)N[C@@H](CCCNC(=N)N)C(=O)N[C@@H](CCCCN)C(=O)N[C@@H](CCCNC(=N)N)C(=O)N[C@@H](CCC(N)=O)C(=O)N[C@@H](CCC(N)=O)C(N)=O)[C@@H](C)CC)[C@@H](C)CC)[C@@H](C)O)[C@@H](C)O)C(C)C)C(C)C [Melittin]	ND (kills)	11	11		+++	+++	
MASRHMFLPLIGRVLSGIL [MsrA3]	29.6 µM	59.2			+++	+++	+
GFGSLFKFLAKKVAKTVAKQAAKQGAKYVANKHME [Cupiennin 1D]	32.9 µM	16.5	65.9		+++	+++	
GLVDVLGKVGGLIKKLLP [Ponericin G6]	17.2 µM	274.9	274.9				+++
FFHHIFRGIVHVGKTIHKLVTG [Piscidin 2]		24.6		24.6	+++	+++	+++
KWKLFKKIEKVGQNIRDGIIKAGPAVAVVGQATQIAK [Cecropin A]	15.6 µM	124.9	124.9		+++	++	
LLKELWTKIKGAGKAVLGKIKGLL [Ponericin L2]	12.1 µM	48.5	97		+++	+++	
FIHHIFRGIVHAGRSIGRFLTG [Piscidin 3]				100.3	+++	+++	+++
